# Measured values: US20090176714A1, “METHOD OF REDUCING THE EFFECTS OF ABeta AND COMPOSITIONS THEREFORE” (priority 2004, published 2009)
# No end group written: not given here.
# Assays:
# [1] = tested on: hippocampal slice cultures; assay: Aβ-induced cell death (EthD-1/calcein AM, % Death) in organotypic hippocampal slice cultures; format: cell-based, mouse
# Experimental: Pups from C57B6/SJL mice were anaesthetized and decapitated at postnatal day 15. The brain was removed and placed in ice-cold dissecting medium (50% Minimum Essential Medium (Invitrogen, Carlsbad, Calif.), 50% Hank's Balanced Salt Solution (Invitrogen), 25 mM HEPES, and 36 mM glucose). Both hippocampi were dissected under a dissecting microscope and cut at 400 μm on a McIlwain tissue chopper. Slices were separated and placed on filter inserts with a 30 mm diameter and a 0.4 μm filter pore size (Millipore, Billerica, Mass.) held in 6-well culture plates. For the first 3 days, slices were kept in Neurobasal media with B-27 supplement, 1 mM glutamine, and 1% penicillin/streptomycin (Invitrogen). Subsequently, the media was changed every 3 days using media without antibiotics. Organotypic cultures were maintained in a humidified incubator at 37° C. in 5% O2 and 5% CO2 for 14 to 21 days.
# (§1) Cell death and viability was determined on live slices using the fluorescent probes from Molecular Probes' Live/Dead Kit. After a 40 minute incubation in calcein AM (1:400) and ethidium homodimer (1:1000) in phosphate buffered saline, slices were visualized at 200× magnification with an inverted Nikon Diaphot 200 microscope using the Bio-Rad MRC-1024 Laser Scanning Confocal system (Hercules, Calif.). Random images of the neuronal fields were captured at the emission spectrum of each probe, and Scion Image software (Frederick, Md.) was used to quantify the number of live and dead cells. At least three areas including a neuronal field were imaged and used to determine the percent death for each slice. The percent death was calculated as the number of EthD-1 positive cells divided by the total number of EthD-1 and calcein AM positive cells.
# β-amyloid1-42 and reverse Aβ (Aβ42-1) were obtained from BACHEM (Torrance, Calif.). These polypeptides were dissolved in 0.1% NH3OH at 222 μM. For treatments, Aβ was aggregated at 50 μM in Neurobasal media with B-27 supplement and 1 mM glutamine at 37° C. for 24 hours. Then, the slice culture media was removed, and the slices were treated with 1 mL of 25 μM or 50 μM Aβ, reverse Aβ, or vehicle for 24 hours. Human TTR (Calbiochem) or IGF-2 (Peprotech, Rocky Hill, N.J.) was added to slices together with the Aβ treatment at final concentrations of 3 μM (TTR) or 500 nM (IGF-2). sAPPα was prepared as described previously (Mattson et al., Neuron, 10:243-254 (1993)).
# Unless otherwise stated, all sAPPα treatments were performed at 1 nM 48 hours prior to the addition of Aβ. Antibodies against TTR (C-20) or IGF-2 (F-20; 4 μg/mL; Santa Cruz) or sAPPα (6E10; 10 μg/mL; Chemicon) were added to slices together with the sAPPα treatment. Goat IgG (4 μg/mL; Santa Cruz) or mouse IgG1 (10 μg/mL; Chemicon) was added as a control. The 10 amino acid fragment of the carboxyl-terminal region of sAPPα (592-601 of APP695; SEVKMDAEFR; SEQ ID NO:1; Sigma) was added according to the same protocol for sAPPα.
# SiRNA's were created based on the mouse mRNA sequences using the Ambion Silencer siRNA Construction Kit (Austin, Tex.). Several siRNA's were created by in vitro transcription for each silenced gene. Transfection was performed for 4 hours at 37° C. prior to vehicle or sAPPα treatment using 25 nM siRNA combined with the polyamines in the Ambion siPORT Amine Transfection Agent. Transfections were performed in Neurobasal media with 1 mM glutamine (Invitrogen). The successful mRNA target sequences are as follows, TTR: 5′-[…]-3′ (SEQ ID NO:16) and 5′-[…]-3′ (SEQ ID NO:17); IGF-2: 5′-AA-GGGGATAGAGATGTGAGAG-3′ (SEQ ID NO:18) and 5′-AAATTATGTGGT-AATTCTGCA-3′ (SEQ ID NO:19); IGF-1R: 5′-[…]-3′ (SEQ ID NO:20) and 5′-[…]-3′ (SEQ ID NO:21).
# β-amyloid1-42 and reverse Aβ (Aβ42-1) were obtained from BACHEM (Torrance, Calif.). These peptides were dissolved in 0.1% NH3OH at 222 μM. For treatments, Aβ was aggregated at 50 μM in Neurobasal media with B-27 supplement and 1 mM glutamine at 37° C. for 24 hours. […]
# [2] = tested on: human cortical slices; assay: Aβ-induced cell death (EthD-1/calcein AM) in human organotypic cortical cultures; format: cell-based; conditions: for Protection against the Aβ-induced EthD-1 staining: FIG. 6C
# Text: Four patients with intractable epilepsy who had elected to undergo a temporal lobe resection were recruited for this study. […] However, the overlying temporal cortex is normal. The age of the subjects ranged from 20 to 49. Brain tissue was obtained with informed consent from all patients.
# Brain tissue was removed in large, intact pieces by electrocautery. Tissue obtained from the temporal cortex was approximately 3 cm×2 cm×1.5-2 cm. Immediately following removal, the tissue was placed in ice-cold Neuregen-I media (Brainbits, Springfield, Ill.), a CO2 independent transport and holding medium, and transported to a tissue culture laboratory. Meninges were removed before cutting the tissue with a scalpel to produce blocks about 0.5-1 cm^3 such that each gyrus was kept as intact as possible and the cortical layers were preserved. As described previously, incisions were made perpendicular to the longitudinal axis of the gyrus and along the white matter (Verwer et al., Exp. Gerontol., 38:167-172 (2003)). A vibratome was used to cut 400 μm thick slices at a plane perpendicular to the longitudinal axis of the gyrus. Thus, all cortical layers and a small amount of white matter were included in a slice. Alternately, small tissue pieces, which were usually obtained from the hippocampus, were cut at 400 μm using a McIlwain tissue chopper. No more than 2 slices were placed on a filter insert with a 30 mm diameter and a 0.4 μm filter pore size (Millipore, Billerica, Mass.) held in 6-well culture plates. For the first 12 hours, slices were kept in 1-1.2 mL Neurobasal media with B-27 supplement, 0.5 mM glutamine, and 1% penicillin/streptomycin (Invitrogen). Subsequently, the media was changed every 2 days using 1 mL of media without antibiotics. Organotypic cultures were maintained in a humidified incubator at 37° C. in 5% O2, 5% CO2, and 90% N for 4 to 28 days.
# as §1, with “images” for “images of the neuronal fields”, “areas” for “areas including a neuronal field”
# β-amyloid1-42 and reverse Aβ (Aβ42-1) were obtained from BACHEM (Torrance, Calif.). These peptides were dissolved in 0.1% NH3OH at 222 μM. For treatments, Aβ or reverse Aβ was aggregated at 50 μM in Neurobasal media with B-27 supplement and 0.5 mM glutamine at 37° C. for 24 hours. Then, the slice culture media was removed, and the slices were treated with 1 mL of 25 μM or 50 μM Aβ, reverse Aβ, or vehicle for 24 hour. Human TTR (Calbiochem) was added to slices together with the Aβ treatment at final concentrations of 0.03, 0.3, and 3 μM TTR. sAPPα was obtained from Sigma (St. Louis, Mo.). Unless otherwise stated, all sAPPα treatments were performed at 1 nM 48 hours prior to the addition of Aβ. The 10 amino acid fragment of the carboxyl-terminal region of sAPPα (592-601 of APP695; SEVKMDAEFR was added according to the same protocol for sAPPα. Because a variable amount of tissue was obtained from each patient, not all treatments were performed on all patients.
# [3] = 48 h prior to 25 μM Aβ (24 h), FIG. 12B, 1 nM, final concentration of 1 mM
# [4] = 1 nM 48 hours prior to 25 μM Aβ (24 hours), FIG. 7
# [5] = 1 nM 48 h prior to 25 μM Aβ (24 h), FIG. 12A
Substance,"Protection against Aβ-induced death (% Death) [1, 3]","Protection against Aβ-induced death (% Death) [1, 4]",further results
(dD)AEF,do not significantly protect,–,–
D(dA)EF,do not significantly protect,–,–
DAE(dF),do not significantly protect,–,–
"EADF-amide (EADF-NH2) [EADF (SEQ ID NO:5)-amide, aspartic acid and glutamic acid switched and an amide group attached to the COOH-terminus]",significantly protects,–,–
EVKMDAEFR [fragment with the serine eliminated],–,significantly protected,–
R(9)-DAEF (RRRRRRRRRDAEF) [9 arginines added to the NH2-terminal end of the tetrapeptide],–,–,"Protection against Aβ-induced death (% Death) [1, 5]: significantly protected"
SEVKMDAE [fragment with both arginine and phenylalanine eliminated],–,reversed the protection,–
SEVKMDAEF [10 amino acid fragment with the carboxyl arginine eliminated],–,protection was maintained,–
VKMDAEFR [fragment with the serine and glutamic acid eliminated],–,significantly protected,–
acetyl-DAEF (Ac-DAEF) [DAEF with the NH2-terminal end acetylated],–,–,"Protection against Aβ-induced death (% Death) [1, 5]: did not protect to the same degree as the unmodified tetrapeptide; Protection against Aβ-induced death (% Death) ([1]; 1 nM 48 h prior to 25 μM Aβ (24 h), FIG. 12A, listed as Acetylated DAEF): significant protection"
acetyl-EADF (Ac-EADF),does not,–,–
insulin-like growth factor 2 [IGF-2],–,–,"Protection against Aβ-induced death (% Death) ([1]; 500 nM added together with Aβ, FIG. 4A): partially protected"
transthyretin [TTR],–,–,"Protection against Aβ-induced death (% Death) ([1]; 3 μM added together with Aβ, FIG. 4A): completely protected; Protection against the Aβ-induced EthD-1 staining ([2]; co-treatment with 0.03 μM): not; Protection against the Aβ-induced EthD-1 staining ([2]; co-treatment with 0.3 μM): protected; Protection against the Aβ-induced EthD-1 staining ([2]; co-treatment with 3 μM): protected; Concentrations that protect against Aβ toxicity ([2]; human cortical slices, co-treatment with Aβ): ≥ 0.3 µM"
